Experimental data as given in patent US11014904B2, “1,2,4-triazine-3-amine derivative, preparation method therefor, and use thereof in medicine” (Jiangsu Hengrui Medicine Co., Ltd., priority 2017, dated 2021).

Tests used:
Assay type in all cases: cell-based
[1] = molecular target: T1, adenosine A2a receptor (A2aR) (Homo sapiens, UniProt P29274); experiment: Inhibition of the adenosine A2a receptor cAMP signaling pathway in CHO-K1/A2aR cells (HTRF); details: CHO-K1/A2aR cells, cAMP, NECA 20 nM; Table 1
T1 construct: expressed in transfected cells; host or cells: CHO-K1
From the text: (§1) Determination of the inhibition activity of the compounds of the present invention on the adenosine A2a receptor (A2aR) cAMP signaling pathway, the adenosine A2b receptor (A2bR) cAMP signaling pathway, the adenosine A1 receptor (A1R) cAMP signaling pathway and the adenosine A3 receptor (A3R) cAMP signaling pathway.
(§2) The inhibition activity of the compounds of the present invention on the adenosine A2a receptor (A2aR) cAMP signaling pathway, the adenosine A2b receptor cAMP signaling pathway, the adenosine A1 receptor cAMP signaling pathway and the adenosine A3 receptor cAMP signaling pathway was determined by the following method. The experimental method is briefly described as follows:
2.1 Adenosine A2a receptor
CHO-K1/A2aR cells were cultured in DMEM/F12 medium containing 10% fetal bovine serum and 800 μg/ml bleomycin. The cells were digested with the cell separation buffer during the experiment. The cells were resuspended in the balanced salt buffer containing 20 mM HEPES and 0.1% bovine serum albumin and counted, and the cell density was adjusted to 10^6 cells/ml. In the 384-well plate, each well was added with 5 μl of cell suspension, and 2.5 μl of test compound (4× concentration) formulated with the balanced salt buffer containing 20 mM HEPES, 0.1% bovine serum albumin, 54 μM rolipram and 2.7 U/ml adenosine deaminase, and the plate was incubated at room temperature for 30 minutes. Each well was then added with 2.5 μl of […] (4× concentration) formulated with the balanced salt buffer containing 20 mM HEPES, 0.1% bovine serum albumin, 54 μM rolipram and 2.7 U/ml adenosine deaminase, and the plate was incubated at room temperature for 30 minutes. The final concentrations of the compounds were: 10000, 2000, 400, 80, 16, 3.2, 0.64, 0.128, 0.0256, 0.00512, and 0.001024 nM. The final concentration of […] was 20 nM. Intracellular cAMP concentration was detected with the cAMP dynamic 2 kit. cAMP-d2 and Anti-cAMP-Eu-Cryptate were diluted respectively with the cAMP lysis buffer at a ratio of 1:4. Each well was added with 5 μl of diluted cAMP-d2, followed by addition of 5 μl of diluted Anti-cAMP-Eu-Cryptate, and the plate was incubated at room temperature in the dark for 1 hour. The HTRF signal values were read by the PHERAstar multi-function microplate reader.

[2] = molecular target: T2, adenosine A1 receptor (A1R) (Homo sapiens, UniProt P30542); experiment: Inhibition of the adenosine A1 receptor cAMP signaling pathway in CHO-K1/A1R cells (HTRF); details: for IC50: CHO-K1/A1R cells, cAMP, forskolin 10 μM, CPA 10 nM; for IC50 ratio (A1R/A2aR): selectivity A1R over A2aR
T2 construct: expressed in transfected cells; host or cells: CHO-K1
T2 sequence (P30542 1-326): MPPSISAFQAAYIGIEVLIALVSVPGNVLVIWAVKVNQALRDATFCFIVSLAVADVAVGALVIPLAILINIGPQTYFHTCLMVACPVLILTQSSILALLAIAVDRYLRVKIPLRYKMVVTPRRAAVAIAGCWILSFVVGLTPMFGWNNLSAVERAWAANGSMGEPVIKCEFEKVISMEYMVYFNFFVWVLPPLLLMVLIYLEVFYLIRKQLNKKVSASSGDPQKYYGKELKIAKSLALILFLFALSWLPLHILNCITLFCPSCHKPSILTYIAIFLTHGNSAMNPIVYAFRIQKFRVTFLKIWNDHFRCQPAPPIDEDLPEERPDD
From the text: as §1, §2
2.3 Adenosine A1 Receptor
CHO-K1/A1R cells were cultured in DMEM/F12 medium containing 10% fetal bovine serum and 1 mg/ml G418. The cells were digested with the cell separation buffer during the experiment. The cells were then resuspended in the balanced salt buffer containing 20 mM HEPES and 0.1% bovine serum albumin and counted, and the cell density was adjusted to 5×10^5 cells/ml. In the 384-well plate, each well was added with 12.5 μl of cell suspension, and 6.25 μl of test compound (4× concentration) formulated with the balanced salt buffer containing 20 mM HEPES, 0.1% bovine serum albumin, 54 μM rolipram and 2.7 U/ml adenosine deaminase, and the plate was incubated at room temperature for 30 minutes. Each well was then added with 6.25 μl of forskolin and N6-cyclopentyladenosine (4× concentration) formulated with the balanced salt buffer containing 20 mM HEPES, 0.1% bovine serum albumin, 54 μM rolipram and 2.7 U/ml adenosine deaminase, and the plate was incubated at room temperature for 30 minutes. The final concentrations of the compounds were: 100000, 10000, 1000, 100, 10, 1, 0.1 and 0 nM. The final concentrations of forskolin was 10 μM. The final concentrations of CPA was 10 nM. Intracellular cAMP concentration was detected with the cAMP dynamic 2 kit. cAMP-d2 and Anti-cAMP-Eu-Cryptate were diluted respectively with the cAMP lysis buffer at a ratio of 1:4. Each well was added with 12.5 μl of diluted cAMP-d2, followed by addition of 12.5 μl of diluted Anti-cAMP-Eu-Cryptate, and the plate was incubated at room temperature in the dark for 1 hour. The HTRF signal values were read by the PHERAstar multi-function microplate reader.

[3] = molecular target: T3, adenosine A3 receptor (A3R) (Homo sapiens, UniProt P0DMS8); experiment: Inhibition of the adenosine A3 receptor cAMP signaling pathway in CHO-K1/A3R cells (HTRF); details: for IC50: CHO-K1/A3R cells, cAMP, forskolin 10 μM, 2Cl-IB-MECA 5 nM; for IC50 ratio (A3R/A2aR): selectivity A3R over A2aR
T3 construct: expressed in transfected cells; host or cells: CHO-K1
T3 sequence (P0DMS8 1-318): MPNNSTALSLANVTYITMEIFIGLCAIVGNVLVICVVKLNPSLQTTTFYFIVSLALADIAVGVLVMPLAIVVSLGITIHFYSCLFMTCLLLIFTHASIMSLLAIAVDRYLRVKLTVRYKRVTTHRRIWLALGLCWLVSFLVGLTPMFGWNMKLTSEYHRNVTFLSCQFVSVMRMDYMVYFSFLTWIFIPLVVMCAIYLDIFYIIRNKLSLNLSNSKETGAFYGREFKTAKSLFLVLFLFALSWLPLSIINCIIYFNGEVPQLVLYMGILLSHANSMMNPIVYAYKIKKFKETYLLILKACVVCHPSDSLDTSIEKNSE
From the text: as §1, §2
2.4 Adenosine A3 Receptor
CHO-K1/A3R cells were cultured in DMEM/F12 medium containing 10% fetal bovine serum and 10 μg/ml puromycin. The cells were digested with the cell separation buffer during the experiment. The cells were resuspended in the balanced salt buffer containing 20 mM HEPES and 0.1% bovine serum albumin and counted, and the cell density was adjusted to 5×10^5 cells/ml. In the 384-well plate, each well was added with 12.5 μl of cell suspension, and 6.25 μl of test compound (4× concentration) formulated with the balanced salt buffer containing 20 mM HEPES, 0.1% bovine serum albumin, 54 μM rolipram and 2.7 U/ml adenosine deaminase, and the plate was incubated at room temperature for 30 minutes. Each well was then added with 6.25 μl of forskolin and 2Cl-IB-MECA (4× concentration) formulated with the balanced salt buffer containing 20 mM HEPES, 0.1% bovine serum albumin, 54 μM rolipram and 2.7 U/ml adenosine deaminase, and the plate was incubated at room temperature for 30 minutes. The final concentrations of the compounds were: 100000, 10000, 1000, 100, 10, 1, 0.1 and 0 nM. The final concentrations of forskolin was 10 μM. The final concentration of 2Cl-IB-MECA was 5 nM. Intracellular cAMP concentration was detected with the cAMP dynamic 2 kit. cAMP-d2 and Anti-cAMP-Eu-Cryptate were diluted respectively with the cAMP lysis buffer at a ratio of 1:4. Each well was added with 12.5 μl of diluted cAMP-d2, followed by addition of 12.5 μl of diluted Anti-cAMP-Eu-Cryptate, and the plate was incubated at room temperature in the dark for 1 hour. The HTRF signal values were read by the PHERAstar multi-function microplate reader.

T1 sequence (P29274 whole entry): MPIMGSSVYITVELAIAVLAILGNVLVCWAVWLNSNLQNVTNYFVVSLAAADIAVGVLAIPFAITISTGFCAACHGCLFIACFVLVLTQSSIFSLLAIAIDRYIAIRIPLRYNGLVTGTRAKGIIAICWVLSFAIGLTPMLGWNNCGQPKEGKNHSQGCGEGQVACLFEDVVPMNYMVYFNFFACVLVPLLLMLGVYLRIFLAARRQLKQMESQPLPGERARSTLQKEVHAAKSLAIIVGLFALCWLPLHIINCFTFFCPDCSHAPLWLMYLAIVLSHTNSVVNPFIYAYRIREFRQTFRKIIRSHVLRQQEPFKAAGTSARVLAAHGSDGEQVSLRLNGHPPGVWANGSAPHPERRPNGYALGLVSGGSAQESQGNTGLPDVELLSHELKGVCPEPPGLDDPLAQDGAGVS

| IC50 [1] | IC50 [2] | IC50 ratio (A1R/A2aR) [2] | IC50 [3] | IC50 ratio (A3R/A2aR) [3] | SMILES |
| --- | --- | --- | --- | --- | --- |
| 3.2 nM | 3260 nM | 1018 | > 10000 nM | >10^3 | Cc1ncnc2c(F)cc(-c3nnc(N)nc3-c3ccc(F)cc3)cc12 [Example 50, 6-(8-Fluoro-4-methylquinazolin-6-yl)-5-(4-fluorophenyl)-1,2,4-triazin-3-amine] |
| 0.5 nM | 121 nM | 242 | > 10000 nM | >10^4 | Cc1cc(-c2nnc(N)nc2-c2ccccc2)cc2cccnc12 [Example 1, 6-(8-Methylquinolin-6-yl)-5-phenyl-1,2,4-triazin-3-amine] |
| 3.7 nM |  |  |  |  | Nc1nnc(-c2ccc3ncccc3c2)c(-c2ccc(F)cc2)n1 [Example 30, 5-(4-Fluorophenyl)-6-(quinolin-6-yl)-1,2,4-triazin-3-amine] |
| 3.5 nM |  |  |  |  | Nc1nnc(-c2ccc3nccc(C(F)F)c3c2)c(-c2ccc(F)cc2)n1 [Example 51, 6-(4-(Difluoromethyl)quinolin-6-yl)-5-(4-fluorophenyl)-1,2,4-triazin-3-amine] |
| 3.1 nM |  |  |  |  | Cc1cc(-c2nnc(N)nc2-c2cccs2)cc2cccnc12 [Example 7, 6-(8-Methylquinolin-6-yl)-5-(thiophen-2-yl)-1,2,4-triazin-3-amine] |
| 2.5 nM |  |  |  |  | Nc1nnc(-c2ccc3nccc(C4CC4)c3c2)c(-c2ccc(F)cc2)n1 [Example 49, 6-(4-Cyclopropylquinolin-6-yl)-5-(4-fluorophenyl)-1,2,4-triazin-3-amine] |
| 3.6 nM |  |  |  |  | Cc1cc(-c2nnc(N)nc2-c2ccc(F)cc2)cc2cccnc12 [Example 8, 5-(4-Fluorophenyl)-6-(8-methylquinolin-6-yl)-1,2,4-triazin-3-amine] |
| 0.9 nM |  |  |  |  | Nc1nnc(-c2ccc3ncc(F)cc3c2)c(-c2ccccc2)n1 [Example 24, 6-(3-Fluoroquinolin-6-yl)-5-phenyl-1,2,4-triazin-3-amine] |
| 1.6 nM |  |  |  |  | CCc1ccnc2c(F)cc(-c3nnc(N)nc3-c3ccccc3)cc12 [Example 47, 6-(4-Ethyl-8-fluoroquinolin-6-yl)-5-phenyl-1,2,4-triazin-3-amine] |
| 2.2 nM |  |  |  |  | Nc1nnc(-c2ccc3nccc(Cl)c3c2)c(-c2ccc(F)cc2)n1 [Example 27, 6-(4-Chloroquinolin-6-yl)-5-(4-fluorophenyl)-1,2,4-triazin-3-amine] |
| 158 nM |  |  |  |  | Nc1nnc(-c2ccc3ccccc3c2)c(-c2ccccc2)n1 [Example 13, 6-(Naphthalen-2-yl)-5-phenyl-1,2,4-triazin-3-amine, reference compound] |
| 1.3 nM |  |  |  |  | Cc1cc(-c2nnc(N)nc2-c2ccco2)cc2cccnc12 [Example 6, 5-(Furan-2-yl)-6-(8-methylquinolin-6-yl)-1,2,4-triazin-3-amine] |
| 3 nM |  |  |  |  | Cc1cnc2ccc(-c3nnc(N)nc3-c3ccccc3)cc2c1 [Example 28, 6-(3-Methylquinolin-6-yl)-5-phenyl-1,2,4-triazin-3-amine] |
| 3.5 nM |  |  |  |  | Nc1nnc(-c2ccc3ncncc3c2)c(-c2ccccc2)n1 [Example 29, 5-Phenyl-6-(quinazolin-6-yl)-1,2,4-triazin-3-amine] |
| 2.4 nM | 3280 nM | 1365 | > 10000 nM | >10^3 | Cc1cc(-c2nc(N)nnc2-c2ccc3nccc(C)c3c2)ccn1 [Example 48, 5-(2-Methylpyridin-4-yl)-6-(4-methylquinolin-6-yl)-1,2,4-triazin-3-amine] |
| 1.8 nM |  |  |  |  | Nc1nnc(-c2cc(F)c3ncccc3c2)c(-c2cccc(F)c2)n1 [Example 26, 5-(3-Fluorophenyl)-6-(8-fluoroquinolin-6-yl)-1,2,4-triazin-3-amine] |
